Data on 16 compounds can be found in patent US20250213575A1, “8-HETEROCYCLIC-3-(PHENYLSULFONYL)-[1,2,3]TRIAZOLO[1,5A]QUINAZOLIN-5(4H)-ONE DERIVATIVES AS ANTI-BACTERIALS” (priority 2022, published 2025).

The assay addresses AgrA (Staphylococcus aureus, UniProt P0A0I7). Nature of the assay: cell-based. Particulars: for Ratio IC50 (in presence of HSA)/IC50 (in absence of HSA): 40 mg/mL HSA vs without HSA. Also noted: species or system S. aureus USA300 strain UAMS-1625.
Where [1] appears, read: IC50 at 40 mg/mL HSA, LB medium supplemented with 40 mg/mL human serum albumin.
[2] abbreviates: IC50 without HSA, LB medium, without HSA.

Chain of AgrA (P0A0I7 whole entry): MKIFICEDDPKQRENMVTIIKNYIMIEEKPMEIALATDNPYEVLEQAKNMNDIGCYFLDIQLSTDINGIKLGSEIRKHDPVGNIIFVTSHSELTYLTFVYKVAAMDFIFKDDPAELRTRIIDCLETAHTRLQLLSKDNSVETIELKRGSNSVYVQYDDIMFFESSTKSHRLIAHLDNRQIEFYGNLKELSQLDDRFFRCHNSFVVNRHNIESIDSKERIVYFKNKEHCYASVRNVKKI

On to `Cc1ccc(S(=O)(=O)c2nnn3c2[nH]c(=O)c2ccc(N4CCC5C(CCN5C)C4)cc23)c(C)c1` (stereo not drawn) [Compound 39, 3-(2,4-dimethylbenzenesulfonyl)-8-{1-methyl-octahydro-1H-pyrrolo[3,2-c]pyridin-5-yl}-4H,5H-[1,2,3]triazolo[1,5-a]quinazolin-5-one], for which the “Ratio IC50 (in presence of HSA)/IC50 (in absence of HSA)” value (shortened to “Ratio IC50 (in presence of HSA)/IC50”) is reported as “+++ (ratio ≤ 25)”. Besides, the IC50 under setting [1] was 20.3 to 102 µM. Further, the half-inhibitory concentration (IC50) under setting [2] is < 2.03 µM.
The like results for `Cc1ccc(S(=O)(=O)c2nnn3c2[nH]c(=O)c2ccc(N4CC5(COC5)C4)cc23)c(C)c1` [Compound 13, 3-(2,4-dimethylbenzenesulfonyl)-8-{2-oxa-6-azaspiro[3.3]heptan-6-yl}-4H,5H-[1,2,3]triazolo[1,5-a]quinazolin-5-one] were, in that order, “++ (ratio ≤ 125)”, 22.1 to 111 µM and < 2.21 µM.
Turning to `Cc1ccc(S(=O)(=O)c2n[nH]n3c2nc(=O)c2ccc(N4CCN(C5CCOCC5)CC4)cc23)c(C)c1` [Compound 56, 3-(2,4-dimethylbenzenesulfonyl)-8-[4-(oxan-4-yl)piperazin-1-yl]-1H,5H-[1,2,3]triazolo[1,5-a]quinazolin-5-one], the “Ratio IC50 (in presence of HSA)/IC50” value was “+++ (ratio ≤ 25)”. This compound yielded a concentration for half-maximal inhibition (IC50) under setting [1] of 19.1 to 95.7 µM. The half-maximal inhibitory concentration (IC50) under setting [2] was < 1.91 µM.
For `Cc1ccc(S(=O)(=O)c2nnn3c2[nH]c(=O)c2ccc(N4CCN5CCOCC5C4)cc23)c(C)c1` (stereo not drawn) [Compound 30, 3-(2,4-dimethylbenzenesulfonyl)-8-{octahydropyrazino[2,1-c][1,4]oxazin-8-yl}-4H,5H-[1,2,3]triazolo[1,5-a]quinazolin-5-one] the same measures were “+++ (ratio ≤ 25)”, 20.2 to 101 µM and 2.02 to 10.1 µM.
For the compound `Cc1ccc(S(=O)(=O)c2n[nH]n3c2nc(=O)c2ccc(N4CCC5(CCN(C)CC5)C4)cc23)c(C)c1` [Compound 3, 3-(2,4-dimethylbenzenesulfonyl)-8-{8-methyl-2,8-diazaspiro[4.5]decan-2-yl}-1H,5H-[1,2,3]triazolo[1,5-a]quinazolin-5-one], the “Ratio IC50 (in presence of HSA)/IC50” value is recorded as “+++ (ratio ≤ 25)”. In addition, the half-maximal inhibitory concentration (IC50) under setting [1] was < 19.7 µM. The concentration for half-maximal inhibition (IC50) under setting [2] is < 1.97 µM.
As for `Cc1ccc(S(=O)(=O)c2nnn3c2[nH]c(=O)c2ccc(N4CC5(CCN5C)C4)cc23)c(C)c1` [Compound 12, 3-(2,4-dimethylbenzenesulfonyl)-8-{1-methyl-1,6-diazaspiro[3.3]heptan-6-yl}-4H,5H-[1,2,3]triazolo[1,5-a]quinazolin-5-one], the “Ratio IC50 (in presence of HSA)/IC50” value is reported as “+++ (ratio ≤ 25)”. Under setting [1], this compound showed a half-inhibitory concentration (IC50) of 21.5 to 108 µM. Besides, the 50% inhibitory concentration (IC50) under setting [2] is < 2.15 µM.
Consider `Cc1ccc(S(=O)(=O)c2nnn3c2[nH]c(=O)c2ccc(N4CCCN(CCO)CC4)cc23)c(C)c1` [Compound 46, 3-(2,4-dimethylbenzenesulfonyl)-8-[4-(2-hydroxyethyl)-1,4-diazepan-1-yl]-4H,5H-[1,2,3]triazolo[1,5-a]quinazolin-5-one], for which the “Ratio IC50 (in presence of HSA)/IC50” value is “+++ (ratio ≤ 25)”. The 50% inhibitory concentration (IC50) under setting [1] was 20.1 to 101 µM. Besides, the IC50 under setting [2] is < 2.01 µM.
`Cc1ccc(S(=O)(=O)c2nnn3c2[nH]c(=O)c2ccc(N4CCN(CCO)CC4)cc23)c(C)c1` [Compound 43, 3-(2,4-dimethylbenzenesulfonyl)-8-[4-(2-hydroxyethyl)piperazin-1-yl]-4H,5H-[1,2,3]triazolo[1,5-a]quinazolin-5-one]: the “Ratio IC50 (in presence of HSA)/IC50” value was “++ (ratio ≤ 125)”. Also, under setting [1], the half-inhibitory concentration (IC50) lay within 20.7 to 104 µM. Moreover, the IC50 under setting [2] was < 2.07 µM.
Consider `Cc1ccc(S(=O)(=O)c2nnn3c2[nH]c(=O)c2ccc(N4CC(C)N(C)C(C)C4)cc23)c(C)c1` (stereo not drawn) [Compound 27, 3-(2,4-dimethylbenzenesulfonyl)-8-(3,4,5-trimethylpiperazin-1-yl)-4H,5H-[1,2,3]triazolo[1,5-a]quinazolin-5-one], for which the “Ratio IC50 (in presence of HSA)/IC50” value was “+++ (ratio ≤ 25)”. The compound further returned an IC50 under setting [1] of 20.8 to 104 µM. Further, the half-maximal inhibitory concentration (IC50) under setting [2] was < 2.08 µM.
The like results for `Cc1ccc(S(=O)(=O)c2nnn3c2[nH]c(=O)c2ccc(N4CCCN(C)CC4)cc23)c(C)c1` [Compound 49, 3-(2,4-dimethylbenzenesulfonyl)-8-(4-methyl-1,4-diazepan-1-yl)-4H,5H-[1,2,3]triazolo[1,5-a]quinazolin-5-one] were, in that order, “+++ (ratio ≤ 25)”, 21.4 to 107 µM and 2.14 to 10.7 µM.
Turning to `Cc1ccc(S(=O)(=O)c2n[nH]n3c2nc(=O)c2ccc(N4CCN(C5CCN(C)CC5)CC4)cc23)c(C)c1` [Compound 59, 3-(2,4-dimethylbenzenesulfonyl)-8-[4-(1-methylpiperidin-4-yl)piperazin-1-yl]-1H,5H-[1,2,3]triazolo[1,5-a]quinazolin-5-one], the “Ratio IC50 (in presence of HSA)/IC50” value is recorded as “+++ (ratio ≤ 25)”. This compound gave a concentration for half-maximal inhibition (IC50) under setting [1] of 18.7 to 93.3 µM. The IC50 under setting [2] fell in the range of 1.87 to 9.33 µM.
`Cc1ccc(S(=O)(=O)c2nnn3c2[nH]c(=O)c2ccc(N4CCN(C)C(C)(C)C4)cc23)c(C)c1` [Compound 29, 3-(2,4-dimethylbenzenesulfonyl)-8-(3,3,4-trimethylpiperazin-1-yl)-4H,5H-[1,2,3]triazolo[1,5-a]quinazolin-5-one]: the “Ratio IC50 (in presence of HSA)/IC50” value is “++ (ratio ≤ 125)”. This compound gave a concentration for half-maximal inhibition (IC50) under setting [1] of 20.8 to 104 µM. Under setting [2], this compound gave a 50% inhibitory concentration (IC50) of 2.08 to 10.4 µM.
For `Cc1ccc(S(=O)(=O)c2nnn3c2[nH]c(=O)c2ccc(N4C[C@H](C)NC[C@H]4C)cc23)c(C)c1` (racemic) [Compound 28, rac-3-(2,4-dimethylbenzenesulfonyl)-8-[(2R,5S)-2,5-dimethylpiperazin-1-yl]-4H,5H-[1,2,3]triazolo[1,5-a]quinazolin-5-one], the “Ratio IC50 (in presence of HSA)/IC50” value is given as “+++ (ratio ≤ 25)”. Under setting [1], the half-inhibitory concentration (IC50) is < 21.4 µM. The IC50 under setting [2] is < 2.14 µM.
Regarding `Cc1ccc(S(=O)(=O)c2nnn3c2[nH]c(=O)c2ccc(N4C[C@@H](C)N(C)[C@@H](C)C4)cc23)c(C)c1` [Compound 25, rac-3-(2,4-dimethylbenzenesulfonyl)-8-[(3R,5S)-3,4,5-trimethylpiperazin-1-yl]-4H,5H-[1,2,3]triazolo[1,5-a]quinazolin-5-one], the “Ratio IC50 (in presence of HSA)/IC50” value is reported as “+++ (ratio ≤ 25)”. The concentration for half-maximal inhibition (IC50) under setting [1] was < 20.8 µM. Further, the IC50 under setting [2] was < 2.08 µM.
Turning to `Cc1ccc(S(=O)(=O)c2nnn3c2[nH]c(=O)c2ccc(N4CCC(C(=O)O)CC4)cc23)c(C)c1` [Compound 64, 1-[3-(2,4-Dimethyl-benzenesulfonyl)-5-oxo-4,5-dihydro-[1,2,3]triazolo[1,5-a]quinazolin-8-yl]-piperidine-4-carboxylic acid], the “Ratio IC50 (in presence of HSA)/IC50” value was “+++ (ratio ≤ 25)”. Under setting [1], the IC50 was < 20.8 µM. The IC50 under setting [2] was < 2.08 µM.
Take `Cc1ccc(S(=O)(=O)c2nnn3c2[nH]c(=O)c2ccc(N4CCN(CCN)CC4)cc23)c(C)c1` [Compound 57, 8-[4-(2-aminoethyl)piperazin-1-yl]-3-(2,4-dimethylbenzenesulfonyl)-4H,5H-[1,2,3]triazolo[1,5-a]quinazolin-5-one]: the “Ratio IC50 (in presence of HSA)/IC50” value was “+++ (ratio ≤ 25)”. Further, the IC50 under setting [1] lay within 20.8 to 104 µM. For the same compound, the IC50 under setting [2] lay in the range of 2.08 to 10.4 µM.
